Data set [1] has as its target T1, Muscarinic acetylcholine receptor M5 (Homo sapiens) (UniProt P08912).
T1 sequence (whole entry): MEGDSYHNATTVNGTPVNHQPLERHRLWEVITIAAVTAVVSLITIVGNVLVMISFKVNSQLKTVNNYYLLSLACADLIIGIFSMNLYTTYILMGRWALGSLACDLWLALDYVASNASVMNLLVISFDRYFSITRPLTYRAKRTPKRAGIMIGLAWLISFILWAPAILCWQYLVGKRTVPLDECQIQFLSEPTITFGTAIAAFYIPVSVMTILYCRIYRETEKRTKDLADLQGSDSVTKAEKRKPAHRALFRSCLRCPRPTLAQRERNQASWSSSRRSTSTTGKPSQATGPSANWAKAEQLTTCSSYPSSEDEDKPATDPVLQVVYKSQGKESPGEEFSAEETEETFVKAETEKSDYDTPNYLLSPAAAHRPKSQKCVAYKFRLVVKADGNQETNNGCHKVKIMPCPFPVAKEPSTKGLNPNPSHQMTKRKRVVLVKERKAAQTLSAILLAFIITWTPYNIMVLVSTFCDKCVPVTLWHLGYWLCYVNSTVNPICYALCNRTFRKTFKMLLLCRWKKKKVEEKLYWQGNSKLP
Briefly: Positive allosteric modulation of muscarinic M5 receptor expressed in CHO cells assessed as potentiation of acetylcholine-induced intracellular calcium mobilization at 10 uM after 1 hr by FLIPR assay. It counts as functional, cell-based. On the technique in general: Calcium assays in cells follow changes in intracellular calcium, usually with a dye or a luminescent sensor.

Data set [2] deals with T1, Muscarinic acetylcholine receptor M5 (Homo sapiens). In words: Positive allosteric modulation of muscarinic M5 receptor expressed in CHO cells assessed as potentiation of acetylcholine-induced intracellular calcium mobilization at 30 uM after 1 hr by FLIPR assay relative to acetylcholine. The format is functional, cell-based.
The target in data set [3] is T2, Muscarinic acetylcholine receptor M5 (Homo sapiens, UniProt P08912).
T2 sequence (P08912 whole entry): T1 sequence (whole entry)
In words: Positive allosteric modulation of muscarinic M5 receptor expressed in CHO cells assessed as effect on acetylcholine-induced intracellular calcium mobilization after 1 hr by FLIPR assay. It counts as functional, cell-based.

The target in data set [4] is T1, Muscarinic acetylcholine receptor M5 (Homo sapiens). Briefly: Positive allosteric modulation of muscarinic M5 receptor expressed in CHO cells assessed as effect on acetylcholine-induced intracellular calcium mobilization after 1 hr by FLIPR assay relative to acetylcholine. The format is functional, cell-based.
A short description of data set [5]: Partition coefficient, log P of the compound. The format is physicochemical. As to conditions: octanol/water.

Calls of active or inactive are those of the source. No cut-off for these calls is given here.

Consider `CC(C)COc1ccc2c(c1)C(=O)C(=O)N2Cc1ccc(-c2ccccc2)cc1`, for which the outcome in data set [1] was inactive.
Same read-out and setting: the value for `COc1ccccc1COc1ccc2c(c1)C(=O)C(=O)N2Cc1ccc(-c2ccccc2)cc1` was “inactive”; that for `CCCCOc1ccc2c(c1)C(=O)C(=O)N2Cc1ccc(-c2ccccc2)cc1` was “inactive”.
Still for that read-out and setting: then `O=C1C(=O)N(Cc2ccc(-c3ccccc3)cc2)c2ccc(OCc3ccc(F)cc3)cc21`, with “inactive”.
In the case of `O=C1C(=O)N(Cc2ccc(-c3ccccc3)cc2)c2ccc(OCC3CCCCC3)cc21`, the result in data set [1] was inactive.
For `O=C1C(=O)N(Cc2ccc(-c3ccccc3)cc2)c2ccc(OCCc3ccccc3Cl)cc21`, the outcome in data set [1] was inactive.
Take `Cc1ccccc1COc1ccc2c(c1)C(=O)C(=O)N2Cc1ccc(-c2ccccc2)cc1`: the result in data set [1] was inactive.
With `O=C1C(=O)N(Cc2ccc(Oc3ccccc3)cc2)c2ccc(OC(F)(F)F)cc21`, the fold change (FC) in data set [2] was 5.
Regarding `O=C1C(=O)N(Cc2ccc(-c3ccccc3)cc2)c2ccc(OCc3cccc(OC(F)(F)F)c3)cc21`, the outcome in data set [1] was inactive.
For `O=C1C(=O)N(Cc2ccc(-c3ccccc3)cc2)c2ccc(OCCN3CCCC3)cc21`, the outcome in data set [1] was inactive.
Still for that read-out and setting: then `CCCOc1ccc2c(c1)C(=O)C(=O)N2Cc1ccc(-c2ccccc2)cc1`, with “inactive”; and `O=C1C(=O)N(Cc2ccc(-c3ccccc3)cc2)c2ccc(OCc3ccc(C(F)(F)F)cc3)cc21`, with “inactive”.
As a reminder, the EC50 is the concentration that produces a half-maximal response. Turning to `O=C1C(=O)N(Cc2c(F)cc(-c3ccccc3)cc2F)c2ccc(OC(F)(F)F)cc21`, the concentration giving a half-maximal response (EC50) in data set [3] was above 30 µM.
For `O=C1C(=O)N(Cc2ccc(-c3ccccc3)cc2)c2ccc(OCCN3CCOCC3)cc21`, the result in data set [1] was inactive.
For the molecule `O=C1C(=O)N(Cc2ccc(-c3ccccc3)cc2)c2ccc(OCc3ccccc3C(F)(F)F)cc21`, in data set [1], the outcome was inactive.
For `O=C1C(=O)N(Cc2ccc(-c3ccccc3)cc2)c2ccc(OCc3ccccc3F)cc21`, in data set [1], the outcome was inactive.
The Emax is the maximal effect, on the per cent scale that the assay sets. On to `O=C1C(=O)N(Cc2ccc(Oc3ccccn3)cc2)c2ccc(OC(F)(F)F)cc21`, for which, in data set [3], the concentration for a half-maximal effect (EC50) was found to be 3.2 µM. Moreover, the maximal effect (Emax) in data set [4] came to 46%.
For `O=C1C(=O)N(Cc2ccc(-c3ccccc3)cc2)c2ccc(OCc3ccc(F)cc3F)cc21`, the outcome in data set [1] was inactive.
On to `COc1ccc(COc2ccc3c(c2)C(=O)C(=O)N3Cc2ccc(-c3ccccc3)cc2)cc1`, for which the outcome in data set [1] was inactive.
For `CCOc1ccc2c(c1)C(=O)C(=O)N2Cc1ccc(-c2ccccc2)cc1`, the result in data set [1] was inactive.
Usually logP stands for the decadic logarithm of the partition coefficient of the neutral form, usually between octanol and water. A lower logP goes with a more hydrophilic compound. As to `O=C1C(=O)N(Cc2ccc(-c3cccnc3)nc2)c2ccc(OC(F)(F)F)cc21`, the EC50 in data set [3] is 4 µM. Also, the logP in data set [5] is given as 3. The maximal effect (Emax) in data set [4] worked out at 53%.
As for `O=C1C(=O)N(Cc2ccc(-c3ccccc3)cn2)c2ccc(OC(F)(F)F)cc21`, in data set [3], the EC50 worked out at 3.1 µM. Further, the maximal effect (Emax) in data set [4] worked out at 47%.
On to `O=C1C(=O)N(Cc2ccc(-c3cncnc3)cc2)c2ccc(OC(F)(F)F)cc21`, for which, in data set [3], the EC50 was found to be 2.1 µM. In data set [4], the maximal response (Emax) is 53%.
In the case of `O=C1C(=O)N(Cc2ccc(-c3ccccc3)cc2)c2ccc(OCCc3ccccc3C(F)(F)F)cc21`, the outcome in data set [1] was inactive.
Same read-out and setting: then `O=C1C(=O)N(Cc2ccc(-c3ccccc3)cc2)c2ccc(OCC3CCC3)cc21`, with “inactive”; and `COc1ccc(COc2ccc3c(c2)C(=O)C(=O)N3Cc2ccc(-c3ccccc3)cc2)cc1C(F)(F)F`, with “inactive”; and `COc1ccc2c(c1)C(=O)C(=O)N2Cc1ccc(-c2ccccc2)cc1`, with “inactive”.
As for `O=C1C(=O)N(Cc2ccc(-c3ccccc3)cc2)c2ccc(OCc3ccc(OC(F)(F)F)cc3)cc21`, the outcome in data set [1] was inactive.
With `O=C1C(=O)N(Cc2cccc(Oc3ccccc3)c2)c2ccc(OC(F)(F)F)cc21`, in data set [3], the half-maximal effective concentration (EC50) is above 30 µM.
`Cc1ccccc1CCOc1ccc2c(c1)C(=O)C(=O)N2Cc1ccc(-c2ccccc2)cc1`: the outcome in data set [1] was inactive.
As for `O=C1C(=O)N(Cc2ccc(-c3ccccc3)cc2)c2ccc(OCc3ccccc3Cl)cc21`, the outcome in data set [1] was inactive.
Turning to `O=C1C(=O)N(Cc2ccc(Oc3nccs3)cc2)c2ccc(OC(F)(F)F)cc21`, in data set [3], the concentration for a half-maximal effect (EC50) was determined as 2.8 µM. Further, the maximum response (Emax) in data set [4] was 58%.
`O=C1C(=O)N(Cc2ccc(-c3ccccc3)cc2)c2ccc(Oc3ncccn3)cc21`: the result in data set [1] was inactive.
On to `O=C1C(=O)N(Cc2ccc(-c3ccncc3)nc2)c2ccc(OC(F)(F)F)cc21`, for which the concentration for a half-maximal effect (EC50) in data set [3] is 4.4 µM. Moreover, the maximal response (Emax) in data set [4] came out at 50%.
As for `CC1CCCN(COc2ccc3c(c2)C(=O)C(=O)N3Cc2ccc(-c3ccccc3)cc2)C1` (stereo unspecified), the result in data set [1] was inactive.
Regarding `O=C1C(=O)N(Cc2ccc(-c3ccccc3)cc2)c2ccc(OCc3cccc(F)c3)cc21`, in data set [1], the result was inactive.
In the case of `O=C1C(=O)N(Cc2ccc(-c3ccccc3)cc2)c2ccc(OCc3cccnc3)cc21`, the result in data set [1] was inactive.
Turning to `O=C1C(=O)N(Cc2ccc(-c3ccccc3)cc2)c2ccc(OCCC(F)(F)F)cc21`, the outcome in data set [1] was inactive.
For the molecule `O=C1C(=O)N(Cc2ccc(-c3ccccc3)cc2)c2ccc(OC(F)(F)F)cc21`, the lipophilicity (logP) in data set [5] was determined as 4.6. Also, in data set [2], the fold change (FC) is 10.
Regarding `O=C(O)COc1ccc2c(c1)C(=O)C(=O)N2Cc1ccc(-c2ccccc2)cc1`, the outcome in data set [1] was inactive.
On the same count and under the same terms, the value for `O=C1C(=O)N(Cc2ccc(-c3ccccc3)cc2)c2ccc(OCc3cc(F)ccc3F)cc21` was “inactive”.
Same read-out and setting: then `COc1cccc(COc2ccc3c(c2)C(=O)C(=O)N3Cc2ccc(-c3ccccc3)cc2)c1`, with “inactive”.
For `O=C1C(=O)N(Cc2ccc(-c3ccccc3)cc2)c2ccc(OCc3ccccc3)cc21`, in data set [1], the result was inactive.
As to `CN(C)CCOc1ccc2c(c1)C(=O)C(=O)N2Cc1ccc(-c2ccccc2)cc1`, the outcome in data set [1] was inactive.
For `O=C1C(=O)N(Cc2ccc(-c3ccccc3)cc2)c2ccc(OCc3c(F)cccc3F)cc21`, the result in data set [1] was inactive.
Turning to `O=C1C(=O)N(Cc2ccc(-c3cccnc3)cn2)c2ccc(OC(F)(F)F)cc21`, the half-maximal effective concentration (EC50) in data set [3] was above 30 µM.
For the molecule `O=C1C(=O)N(Cc2ccc(-c3ccccc3)cc2)c2ccc(OCc3cccc(C(F)(F)F)c3)cc21`, the outcome in data set [1] was inactive.
With `O=C1C(=O)N(Cc2ccc(-c3ccncc3)cc2)c2ccc(OC(F)(F)F)cc21`, the half-maximal effective concentration (EC50) in data set [3] was found to be 2.8 µM. Further, the Emax in data set [4] was found to be 60%.
Turning to `O=C1C(=O)N(Cc2ccc(-c3ccccc3)cc2)c2ccc(OCc3ccncc3)cc21`, the outcome in data set [1] was inactive.
As to `O=C1C(=O)N(Cc2ccc(-c3ccccc3)cc2)c2ccc(Oc3ccccn3)cc21`, in data set [1], the result was inactive.
Consider `O=C1C(=O)N(Cc2ccc3c(c2)OCO3)c2ccc(OC(F)(F)F)cc21`, for which the 50% effective concentration (EC50) in data set [3] came out at 3.2 µM. Also, the Emax in data set [4] was 90%.
On to `COc1cccc(Oc2ccc(CN3C(=O)C(=O)c4cc(OC(F)(F)F)ccc43)cc2)n1`, for which the half-maximal effective concentration (EC50) in data set [3] is 2.2 µM. The maximum response (Emax) in data set [4] turned out to be 51%.
As to `O=C1C(=O)N(Cc2ccc(-c3ccncc3)cn2)c2ccc(OC(F)(F)F)cc21`, the EC50 in data set [3] was above 30 µM.
For `O=C1C(=O)N(Cc2ccc(-c3ccccc3)cc2F)c2ccc(OC(F)(F)F)cc21`, the EC50 in data set [3] was 5.9 µM. For the same molecule, the Emax in data set [4] is 63%.
Consider `O=C1C(=O)N(Cc2ccc(-c3ccccc3)cc2)c2ccc(OCc3ccc(Cl)cc3)cc21`, for which the result in data set [1] was inactive.
As to `O=C1C(=O)N(Cc2ccc(-c3ccccc3)cc2)c2ccc(OCc3ccccn3)cc21`, the outcome in data set [1] was inactive.
Same read-out and setting: the value for `O=C1C(=O)N(Cc2ccc(-c3ccccc3)cc2)c2ccc(OCc3cccc(Cl)c3)cc21` was “inactive”; that for `O=C1C(=O)N(Cc2ccc(-c3ccccc3)cc2)c2ccc(OCC(F)(F)F)cc21` was “inactive”.
On to `O=C1C(=O)N(Cc2ccc(-c3cccnc3)cc2)c2ccc(OC(F)(F)F)cc21`, for which the 50% effective concentration (EC50) in data set [3] came out at 1.6 µM. Moreover, the Emax in data set [4] was 51%.
Consider `O=C1C(=O)N(Cc2ccc(Cl)nc2)c2ccc(OC(F)(F)F)cc21`, for which the 50% effective concentration (EC50) in data set [3] worked out at 2.4 µM. The maximum response (Emax) in data set [4] was 80%.
As to `O=C1C(=O)N(Cc2ccc(-c3ccccc3)cc2)c2ccc(OCCc3ccccc3F)cc21`, the result in data set [1] was inactive.
In the case of `O=C1C(=O)N(Cc2cccc(-c3ccccc3)c2)c2ccc(OC(F)(F)F)cc21`, the EC50 in data set [3] was above 30 µM.

(Values after ChEMBL document CHEMBL1255557, “Heterobiaryl and heterobiaryl ether derived M5 positive allosteric modulators” (Bioorg Med Chem Lett, 2010).)
